In ChEMBL document CHEMBL6087468, “TKK130 is a 3-Hydroxy-Propanamidine (HPA) with Potent Antimalarial In Vivo Activity and a High Barrier to Resistance” (J Med Chem, 2025):
The source made the active and inactive calls. The calls are words filed in the database; no cut-off is given here.

Experiments:
Plasmodium falciparum [1] = assay: (§1) Antimalarial activity against chloroquine, sulfadoxine, and pyrimethamine-resistant Plasmodium falciparum Dd2 infected in erythrocyte assessed as reduction in number of viable parasites at 10 times IC50 concentration treated for 72 hrs followed by allowed to recover in drug-free medium for 28 days by HRP2-ELISA analysis; format: functional, organism-based
Plasmodium falciparum [2] = assay: as §1, with “120” for “72”; format: functional, organism-based

With `Cl.N=C(CC(O)c1cc2c(F)cc(F)cc2c2cc(C(F)(F)F)ccc12)Nc1ccc(F)cc1` (configuration not stated) the Activity (Plasmodium falciparum [1]) was “Active” and the Activity (Plasmodium falciparum [2]) was “Active”.
